From ChEMBL document CHEMBL1201862, “PubChem BioAssay data set” (2004)
Activity calls are given as the source filed them.

Key:
Estrogen receptor beta = Estrogen receptor beta (Homo sapiens, UniProt Q92731); test: ERβ–SRC-3 coactivator interaction inhibitors, confirmation, orthogonal assay, biochemical, ELISA, streptavidin-HRP readout (AID 1060)
[1] = biological target: T1, Sentrin-specific protease 8 (Homo sapiens, UniProt Q96LD8); type: functional
T1 sequence (Q96LD8 whole entry): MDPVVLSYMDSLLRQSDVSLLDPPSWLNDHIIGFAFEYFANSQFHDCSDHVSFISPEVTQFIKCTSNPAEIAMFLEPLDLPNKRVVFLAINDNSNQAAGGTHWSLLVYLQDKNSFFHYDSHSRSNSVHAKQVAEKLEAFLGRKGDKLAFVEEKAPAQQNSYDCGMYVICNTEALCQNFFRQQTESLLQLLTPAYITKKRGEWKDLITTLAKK

[2] = biological target: T2, Replicative DNA helicase DnaB (Mycobacterium tuberculosis, UniProt P9WMR3); test: DnaB intein splicing inhibitors, dose response, biochemical, cell-free fluorescence (AID 449749); type: functional
T2 sequence (P9WMR3 whole entry): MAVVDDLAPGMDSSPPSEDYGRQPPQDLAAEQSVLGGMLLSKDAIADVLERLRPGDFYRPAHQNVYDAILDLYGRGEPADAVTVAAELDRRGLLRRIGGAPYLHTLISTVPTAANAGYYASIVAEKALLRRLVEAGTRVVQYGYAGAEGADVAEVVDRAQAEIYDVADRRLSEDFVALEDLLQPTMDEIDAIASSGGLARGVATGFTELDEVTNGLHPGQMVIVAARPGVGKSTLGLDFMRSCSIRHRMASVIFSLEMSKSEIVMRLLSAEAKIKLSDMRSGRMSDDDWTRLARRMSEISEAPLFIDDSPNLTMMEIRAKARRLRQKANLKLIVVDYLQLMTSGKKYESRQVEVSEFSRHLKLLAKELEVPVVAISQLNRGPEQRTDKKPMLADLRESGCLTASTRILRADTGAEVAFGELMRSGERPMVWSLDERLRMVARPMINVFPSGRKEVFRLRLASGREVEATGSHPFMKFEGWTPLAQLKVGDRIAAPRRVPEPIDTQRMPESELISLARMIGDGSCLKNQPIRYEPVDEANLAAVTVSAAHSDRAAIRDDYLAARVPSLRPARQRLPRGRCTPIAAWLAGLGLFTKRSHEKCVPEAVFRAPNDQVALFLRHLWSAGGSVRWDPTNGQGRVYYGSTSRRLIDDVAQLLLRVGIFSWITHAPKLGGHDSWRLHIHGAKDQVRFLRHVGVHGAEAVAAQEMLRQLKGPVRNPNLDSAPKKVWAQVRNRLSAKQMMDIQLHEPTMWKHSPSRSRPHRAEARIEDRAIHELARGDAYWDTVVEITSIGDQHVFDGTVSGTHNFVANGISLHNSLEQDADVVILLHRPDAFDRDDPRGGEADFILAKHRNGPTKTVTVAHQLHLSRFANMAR

[3] = biological target: T1, Sentrin-specific protease 8; type: functional; remark: listed apart in the source
Protein RecA = biological target: T3, Protein RecA (Mycobacterium tuberculosis, UniProt P9WHJ3); test: Fluorescence Cell-Free Homogeneous Dose Retest to Identify Inhibitors of RecA-Intein Splicing Activity. [Related pubchem assays (depositor defined):AID2097, AID2223, AID489010, AID492950]; type: functional
T3 sequence (P9WHJ3 whole entry): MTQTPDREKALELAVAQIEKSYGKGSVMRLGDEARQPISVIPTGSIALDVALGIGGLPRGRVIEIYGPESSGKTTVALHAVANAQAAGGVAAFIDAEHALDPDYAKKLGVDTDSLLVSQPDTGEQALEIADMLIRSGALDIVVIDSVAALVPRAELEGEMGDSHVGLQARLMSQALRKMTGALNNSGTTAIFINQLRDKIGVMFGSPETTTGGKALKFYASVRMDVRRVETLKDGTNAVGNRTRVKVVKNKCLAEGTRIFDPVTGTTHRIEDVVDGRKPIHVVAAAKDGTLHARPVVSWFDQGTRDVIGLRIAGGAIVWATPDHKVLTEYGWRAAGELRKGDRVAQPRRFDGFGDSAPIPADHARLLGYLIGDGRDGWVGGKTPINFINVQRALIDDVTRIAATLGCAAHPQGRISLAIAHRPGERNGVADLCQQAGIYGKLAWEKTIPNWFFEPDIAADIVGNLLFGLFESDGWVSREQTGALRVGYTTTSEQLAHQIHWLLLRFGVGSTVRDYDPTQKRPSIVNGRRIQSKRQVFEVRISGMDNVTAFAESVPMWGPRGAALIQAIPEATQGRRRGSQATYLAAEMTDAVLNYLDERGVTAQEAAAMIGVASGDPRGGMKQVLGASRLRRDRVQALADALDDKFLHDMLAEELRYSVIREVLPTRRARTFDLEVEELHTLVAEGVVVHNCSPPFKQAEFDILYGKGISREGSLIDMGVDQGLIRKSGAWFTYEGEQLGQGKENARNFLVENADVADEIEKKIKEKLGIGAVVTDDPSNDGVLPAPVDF

[4] = biological target: T4, Neuropeptide Y receptor type 1 (Homo sapiens, UniProt P25929); test: NPY-Y1 receptor antagonist potency, dose response, cell-based (AID 1277); type: functional
T4 sequence (P25929 whole entry): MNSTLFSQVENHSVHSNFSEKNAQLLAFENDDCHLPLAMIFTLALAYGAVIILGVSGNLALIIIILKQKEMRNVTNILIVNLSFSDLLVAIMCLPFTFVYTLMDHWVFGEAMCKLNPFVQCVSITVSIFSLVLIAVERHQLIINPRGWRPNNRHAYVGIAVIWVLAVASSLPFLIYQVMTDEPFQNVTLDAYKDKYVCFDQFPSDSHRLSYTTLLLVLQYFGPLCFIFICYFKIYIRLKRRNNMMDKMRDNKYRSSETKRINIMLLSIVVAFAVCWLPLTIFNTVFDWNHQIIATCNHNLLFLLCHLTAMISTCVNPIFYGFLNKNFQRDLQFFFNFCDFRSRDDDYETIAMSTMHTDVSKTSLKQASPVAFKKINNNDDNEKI

[5] = biological target: T5, Neuropeptide Y receptor type 2 (Homo sapiens, UniProt P49146); test: NPY-Y2 antagonist potency, selectivity check, dose response, counter-screen for NPY-Y1 antagonist project, cell-based (AID 1278); type: functional
T5 sequence (P49146 whole entry): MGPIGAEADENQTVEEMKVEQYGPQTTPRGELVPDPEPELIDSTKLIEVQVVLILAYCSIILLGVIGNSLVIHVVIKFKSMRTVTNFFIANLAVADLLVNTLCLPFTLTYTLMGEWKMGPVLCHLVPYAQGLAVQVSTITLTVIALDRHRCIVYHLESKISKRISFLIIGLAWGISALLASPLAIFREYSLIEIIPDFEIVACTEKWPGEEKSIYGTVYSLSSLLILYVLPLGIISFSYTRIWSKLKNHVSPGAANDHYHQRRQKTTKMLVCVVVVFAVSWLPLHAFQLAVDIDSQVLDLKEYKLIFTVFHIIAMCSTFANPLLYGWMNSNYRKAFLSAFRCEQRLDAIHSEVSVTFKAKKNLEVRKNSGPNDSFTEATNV

Mucolipin-3 = biological target: T6, Mucolipin-3 (Homo sapiens, UniProt Q8TDD5); test: Dose response cell-based high-throughput screening assay for agonists of the transient receptor potential channel ML3 (TRPML3). [Related pubchem assays: 1526, 1424, 1448 ]; type: functional
T6 sequence (Q8TDD5 whole entry): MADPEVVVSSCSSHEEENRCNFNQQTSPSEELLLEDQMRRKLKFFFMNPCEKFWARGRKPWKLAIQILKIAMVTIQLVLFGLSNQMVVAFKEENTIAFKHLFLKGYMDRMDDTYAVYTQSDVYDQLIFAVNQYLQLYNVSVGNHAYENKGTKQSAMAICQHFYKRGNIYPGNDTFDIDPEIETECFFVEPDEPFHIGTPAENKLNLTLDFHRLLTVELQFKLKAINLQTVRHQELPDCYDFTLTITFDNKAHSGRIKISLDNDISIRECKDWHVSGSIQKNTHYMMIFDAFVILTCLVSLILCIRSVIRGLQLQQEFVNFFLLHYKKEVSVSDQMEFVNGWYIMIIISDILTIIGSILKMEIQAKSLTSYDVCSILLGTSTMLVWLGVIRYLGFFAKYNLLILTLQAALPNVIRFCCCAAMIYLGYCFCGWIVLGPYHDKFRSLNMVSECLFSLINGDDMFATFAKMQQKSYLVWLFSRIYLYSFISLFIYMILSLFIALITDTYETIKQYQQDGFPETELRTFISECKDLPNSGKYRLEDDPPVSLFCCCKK

Ion channel NompC = Ion channel NompC (Danio rerio, UniProt Q7T1G6); test: Fluorescence counterscreen assay for TRPML3 agonists: dose response cell-based high-throughput screening assay to identify agonists of the transient receptor potential channel N1 (TRPN1). [Related pubchem assays: 1526, 1424, 1448 ]; type: functional
Streptococcus = test: Group A Streptococcus viability loss, dose response, counter-screen for streptokinase expression inhibitor project, luminescence, BacTiterGlo (AID 1915); type: functional, organism-based;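 note: potency for reduction of bacterial viability or growth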
Streptokinase A = biological target: T7, Streptokinase A (Streptococcus pyogenes serotype M1, UniProt P10520); test: S. pyogenes streptokinase expression inhibitors, potency, dose response, plasminogen activation absorbance, OD405 (AID 1914); type: functional, Streptococcus pyogenes M1 GAS;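 note: secreted streptokinase activity via plasminogen activation per viability signal from cell pellet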
T7 sequence (P10520 whole entry): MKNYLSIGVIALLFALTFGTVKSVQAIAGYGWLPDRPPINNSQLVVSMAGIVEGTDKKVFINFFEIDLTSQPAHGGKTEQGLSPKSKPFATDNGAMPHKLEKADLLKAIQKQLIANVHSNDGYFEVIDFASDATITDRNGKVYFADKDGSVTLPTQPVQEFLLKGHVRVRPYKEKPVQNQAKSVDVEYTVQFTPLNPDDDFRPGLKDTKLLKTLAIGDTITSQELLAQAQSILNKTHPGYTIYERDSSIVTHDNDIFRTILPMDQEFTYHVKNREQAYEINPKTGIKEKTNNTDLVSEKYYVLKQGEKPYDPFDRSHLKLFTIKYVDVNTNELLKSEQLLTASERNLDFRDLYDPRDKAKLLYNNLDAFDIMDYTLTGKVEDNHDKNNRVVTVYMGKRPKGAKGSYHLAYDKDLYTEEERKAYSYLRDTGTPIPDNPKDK

[6] = system: Streptococcus sp. 'group A'; test: growth inhibition of control SK(-) GAS strain, dose response, counter-screen for streptokinase expression inhibitor project, luminescence, kanamycin, BacTiterGlo, confirmation (AID 1900); type: functional, organism-based
[7] = microbe, parasite or virus in culture; type: functional; settings: Mycobacterium tuberculosis
[8] = biological target: T5, Neuropeptide Y receptor type 2; type: functional, cell-based
[9] = biological target: T4, Neuropeptide Y receptor type 1; type: functional
INS1 = test: beta cell apoptosis inhibitors, cytokine rescue, dose response, luminescence, retest (AID 449756); type: functional, cell-based; settings: Rattus norvegicus;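 note: cell death triggered by IL-1 beta plus TNF-alpha plus IFN-gamma mixture; protective hits raise ATP signal compared with cytokine alone wells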
[10] = CRF-BP/CRF-R2 complex antagonists, dose response, cell-based, uHTS hits, 384-well (AID 651639); type: functional, Homo sapiens; settings: read-out: IC50_Mean
[11] = biological target: T8, Corticotropin-releasing factor receptor 2/Corticotropin-releasing factor-binding protein (Homo sapiens, UniProt P24387+Q13324); test: Dose Response confirmation of uHTS hits for small molecule antagonists of the CRF-binding protein and CRF-R2 receptor complex.; type: functional; settings: read-out: IC50_Mean
T8 sequence (Q13324 whole entry): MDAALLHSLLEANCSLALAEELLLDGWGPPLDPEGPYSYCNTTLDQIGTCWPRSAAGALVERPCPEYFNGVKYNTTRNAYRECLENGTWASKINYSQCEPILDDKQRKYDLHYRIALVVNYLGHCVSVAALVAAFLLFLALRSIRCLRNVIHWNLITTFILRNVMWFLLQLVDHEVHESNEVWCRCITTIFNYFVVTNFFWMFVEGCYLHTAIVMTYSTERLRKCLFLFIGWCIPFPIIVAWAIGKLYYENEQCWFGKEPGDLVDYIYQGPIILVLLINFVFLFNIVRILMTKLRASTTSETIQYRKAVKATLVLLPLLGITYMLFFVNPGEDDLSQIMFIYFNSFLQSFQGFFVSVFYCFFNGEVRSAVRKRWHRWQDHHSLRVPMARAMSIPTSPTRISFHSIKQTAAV
T8 sequence (P24387 whole entry): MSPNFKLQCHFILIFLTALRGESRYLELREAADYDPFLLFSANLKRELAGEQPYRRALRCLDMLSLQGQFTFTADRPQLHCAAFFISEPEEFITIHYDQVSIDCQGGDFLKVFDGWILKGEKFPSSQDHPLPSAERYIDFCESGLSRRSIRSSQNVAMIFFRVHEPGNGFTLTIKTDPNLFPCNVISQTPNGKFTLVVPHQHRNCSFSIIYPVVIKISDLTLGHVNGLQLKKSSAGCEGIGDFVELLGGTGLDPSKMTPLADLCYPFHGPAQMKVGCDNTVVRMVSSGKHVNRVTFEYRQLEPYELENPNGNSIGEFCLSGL

[12] = biological target: T8, Corticotropin-releasing factor receptor 2/Corticotropin-releasing factor-binding protein; test: activators of CRF receptor 2 with binding protein – uHTS hits, confirmation (AID 602473); type: functional; settings: read-out: EC50_Mean

Chain of Ion channel NompC (Q7T1G6 whole entry): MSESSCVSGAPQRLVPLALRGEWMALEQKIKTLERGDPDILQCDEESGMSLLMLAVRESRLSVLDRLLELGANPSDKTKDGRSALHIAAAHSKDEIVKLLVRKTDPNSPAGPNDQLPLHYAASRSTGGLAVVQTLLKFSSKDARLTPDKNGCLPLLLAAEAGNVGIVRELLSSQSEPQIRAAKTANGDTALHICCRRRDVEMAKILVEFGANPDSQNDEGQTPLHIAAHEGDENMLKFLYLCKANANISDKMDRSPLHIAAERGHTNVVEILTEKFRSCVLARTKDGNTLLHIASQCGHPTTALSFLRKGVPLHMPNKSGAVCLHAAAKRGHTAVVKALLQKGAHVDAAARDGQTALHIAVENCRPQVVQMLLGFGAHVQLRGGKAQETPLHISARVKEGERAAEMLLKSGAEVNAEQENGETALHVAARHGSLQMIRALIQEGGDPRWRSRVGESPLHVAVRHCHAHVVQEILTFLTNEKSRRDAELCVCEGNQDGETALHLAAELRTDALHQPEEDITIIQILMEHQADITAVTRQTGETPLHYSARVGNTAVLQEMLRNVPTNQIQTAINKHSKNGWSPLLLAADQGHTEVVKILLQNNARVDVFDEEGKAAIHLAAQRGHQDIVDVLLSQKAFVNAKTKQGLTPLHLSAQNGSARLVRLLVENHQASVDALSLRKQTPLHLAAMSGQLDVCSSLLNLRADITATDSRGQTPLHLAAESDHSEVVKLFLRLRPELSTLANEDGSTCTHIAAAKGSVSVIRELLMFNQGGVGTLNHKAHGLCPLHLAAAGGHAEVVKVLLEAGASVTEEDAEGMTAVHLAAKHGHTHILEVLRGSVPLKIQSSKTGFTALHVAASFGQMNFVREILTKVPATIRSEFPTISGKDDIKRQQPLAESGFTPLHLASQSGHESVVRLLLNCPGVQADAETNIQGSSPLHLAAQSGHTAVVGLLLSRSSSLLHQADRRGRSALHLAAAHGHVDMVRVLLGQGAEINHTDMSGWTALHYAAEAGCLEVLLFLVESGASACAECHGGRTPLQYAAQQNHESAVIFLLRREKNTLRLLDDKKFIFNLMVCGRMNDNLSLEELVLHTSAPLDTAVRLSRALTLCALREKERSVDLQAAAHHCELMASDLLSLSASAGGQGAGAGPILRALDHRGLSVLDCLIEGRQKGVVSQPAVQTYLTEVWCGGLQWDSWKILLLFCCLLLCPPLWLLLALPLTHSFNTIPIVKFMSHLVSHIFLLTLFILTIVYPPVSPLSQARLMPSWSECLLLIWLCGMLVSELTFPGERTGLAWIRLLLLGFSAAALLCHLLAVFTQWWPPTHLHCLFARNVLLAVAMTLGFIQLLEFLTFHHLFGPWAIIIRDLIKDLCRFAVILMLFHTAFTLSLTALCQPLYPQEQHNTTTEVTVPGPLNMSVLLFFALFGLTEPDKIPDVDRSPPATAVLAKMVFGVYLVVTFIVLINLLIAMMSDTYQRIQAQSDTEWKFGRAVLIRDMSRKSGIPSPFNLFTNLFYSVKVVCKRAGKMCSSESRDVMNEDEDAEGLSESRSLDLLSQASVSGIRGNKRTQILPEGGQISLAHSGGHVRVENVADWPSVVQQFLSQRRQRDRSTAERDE
Chain of Estrogen receptor beta (Q92731 whole entry): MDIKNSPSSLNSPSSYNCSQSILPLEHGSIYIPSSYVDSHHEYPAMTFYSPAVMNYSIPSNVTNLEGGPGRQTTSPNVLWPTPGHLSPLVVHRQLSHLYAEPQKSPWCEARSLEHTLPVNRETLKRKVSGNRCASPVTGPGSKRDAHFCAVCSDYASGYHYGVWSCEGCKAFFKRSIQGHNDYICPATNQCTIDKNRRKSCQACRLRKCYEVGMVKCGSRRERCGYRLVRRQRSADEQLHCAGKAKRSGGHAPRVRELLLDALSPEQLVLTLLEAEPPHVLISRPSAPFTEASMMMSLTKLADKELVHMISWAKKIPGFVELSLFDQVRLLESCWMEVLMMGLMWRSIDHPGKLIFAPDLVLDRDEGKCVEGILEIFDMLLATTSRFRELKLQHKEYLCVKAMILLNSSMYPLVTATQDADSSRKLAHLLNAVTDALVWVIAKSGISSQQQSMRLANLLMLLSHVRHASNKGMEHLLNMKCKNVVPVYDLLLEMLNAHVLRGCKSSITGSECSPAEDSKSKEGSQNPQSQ

CC1=CC2(O)OCCN(CCO)C2=CC1=O (stereo not given)
IC50 (Estrogen receptor beta): < 0.023 µM (not active)
IC50 [1]: > 100 µM (inactive)
AC50 [2]: 16.9 µM (active)
IC50 [3]: 22.3 µM (active)
EC50 (Protein RecA): 10.2 µM (active)

O=C(c1ccco1)c1cn(Cc2ccc(Cl)cc2)c2ccccc12
IC50 [4]: 6.69 µM (active)
IC50 [5]: 9.22 µM (active)

Cc1ccc(N(C)S(=O)(=O)c2ccc(C)cc2)cc1
EC50 (Mucolipin-3): 5.1 µM (active)
EC50 (Ion channel NompC): > 29.9 µM (not active)

O=C(Cc1ccc(Cl)c(Cl)c1)Nc1ccccc1N1CCOCC1
EC50 (Mucolipin-3): 2.89 µM (active)
EC50 (Ion channel NompC): 13.4 µM (not active)

Oc1cccc(-c2nc3ccc4ccccc4c3c3c2CCC3)c1
EC50 (Streptococcus): 53.6 µM (active)
EC50 (Streptokinase A): 27.8 µM (active)
EC50 [6]: 10 µM (active)
CC50 [7]: > 40 µM (active)
IC50 [8]: 5.22 µM (active)
IC50 [9]: 7.68 µM (active)

CC(=O)OC1COC(OC2C(O)C(C)OC(OC3C(OC4CCC5(C)C(CCC6(C)C5CC=C5C7CC(C)(C)CCC7(C(=O)O)CCC56C)C4(C)CO)OCC(O)C3O)C2O)C(O)C1OC(C)=O (stereo not given)
AC50 (INS1): 5.67 µM (active)
IC50 [4]: > 35 µM (not active)
IC50 [5]: > 35 µM (not active)

COC(=O)c1ccc(CSc2nc3ccccc3c(=O)n2-c2ccccc2)o1
IC50 [10]: 13.6 µM (active)
IC50 [8]: 3.14 µM (active)
IC50 [11]: 0.858 µM (active)
EC50 [12]: > 53 µM (inactive)
IC50 [9]: 5.21 µM (active)
